Experimental data taken from patent US9820996B2, “Preparation method for antithyroid ointment for external application” (priority 2014, dated 2017).
“Also recorded” adds a separate entry of the source.

Tested on: hyperthyroidism patients
Experiment: Typical cases of clinical treatment (case reports)
Format: in vivo, human
Conditions: propylthiouracil and methimazole taken successively
Source text: The present example includes following typical cases of clinical treatment.

Row | SMILES | adverse reaction that led to discontinuing oral treatment (patient history)
1 | Cn1cc[nH]c1=S [methimazole] | severe drug-induced liver damage; also recorded: severe neutropenia; also recorded: acute urticaria
2 | CCCc1cc(=O)[nH]c(=S)[nH]1 [propylthiouracil] | severe drug-induced liver damage; also recorded: severe neutropenia; also recorded: acute urticaria
